Tests used:
[1] = Solubility test in pure water, room temperature, HPLC; assay type: physicochemical; conditions: thermodynamic from solid, excess sample, shaken at room temperature for 15 h, filtered
Procedure: The samples were taken into pure water, and an excess amount of samples were added, which were then shaked at room temperature for 15 h, and filtered, and detected by HPLC. HPLC test conditions: mobile phase: sodium octanesulfonate-potassium dihydrogen phosphate buffer solution (5.0 g of sodium octanesulfonate and 9.1 g of potassium dihydrogen phosphate were taken, and added into 1000 ml of water for dissolution, and the pH was adjusted to 3.0 with phosphoric acid)-acetonitrile (72:28); The detection wavelength was 264 nm; The flow rate was 1.5 ml per minute; The column temperature was 40° C.; Injection volume: 10 μl; Chromatographic column: octadecyl silane bonded silica gel as filler (CAPCELL PAK MG II C18, 4.6 mm×250 mm, 5 μm).

[2] = rats, FDA data for Mirapex ER (pramipexole dihydrochloride), NDA 22-421; cited from earlier work

solubility at 15 h [1]: 140 µg/mL
Structure (SMILES): CCCN[C@H]1CCc2nc(N)sc2C1 [Compound of formula I, (S)-2-amino-4,5,6,7-tetrahydro-6-propylamine-benzothiazole]
T1/2 [2]: 3.18 h
Tmax [2]: 0.5 h

Reference: patent US12583829B2, “Salt of benzothiazole compound, and crystal form and use thereof” (Sichuan Kelun Pharmaceutical Research Institute Co., Ltd., priority 2020, dated 2026)
